Common to all, as to type: in vivo
The subject of experiment [1] is Amaranthus retoflexus (AMARE). Description: Post-emergence Test (glasshouse, percentage damage to the plant). To be noted: post-emergence spray, 1000 g/ha unless otherwise stated, evaluated after 13 days. A digest of the protocol: (§1)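 Spray treatment of sown glasshouse pots at 1000 g/ha (default rate), vehicle acetone/water 50:50 plus 0.5% Tween 20. Read-out: percentage damage after 13 days, converted to a score where 5 denotes 81-100% and 1 denotes 0-20%.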

For experiment [2], the system named is Ipomoea hederacea (IPOHE). The experiment is described as above. As to conditions: post-emergence spray, 1000 g/ha unless otherwise stated, evaluated after 13 days. A digest of the protocol:
(§2)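 Seeds sown in standard soil in a glasshouse (24/16 °C day/night, 14 h light, 65% humidity), then sprayed with an aqueous solution of the compound formulated in acetone/water 50:50 with 0.5% Tween 20 at 1000 g/ha unless otherwise stated. Percentage damage was scored after 13 days on a five-point scale (5=81-100%; 1=0-20%).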

The subject of experiment [3] is Lolium perenne (LOLPE). Described as above. To be noted: post-emergence spray, 1000 g/ha unless otherwise stated, evaluated after 13 days. Put shortly:
as §1

In experiment [4] the test system is Setaria faberi (SETFA). Described as above. To be noted: post-emergence spray, 1000 g/ha unless otherwise stated, evaluated after 13 days. A digest of the protocol: as §2
Experiment [5] relates to Echinochloa crus-galli (ECHCG). Described as above. As to conditions: post-emergence spray, 1000 g/ha unless otherwise stated, evaluated after 13 days. A digest of the protocol:
as §1

The test system of experiment [6] is Solanum nigrum (SOLNI). The description is as above. To be noted: post-emergence spray, 1000 g/ha unless otherwise stated, evaluated after 13 days. Put shortly: as §1
The test system of experiment [7] is Ipomoea hederacea (IPOHE). Description: Pre-emergence Test (glasshouse, percentage damage to the plant). To be noted: 1000 g/ha unless otherwise stated, five-point scale.
Experiment [8] concerns Solanum nigrum (SOLNI). The description is as above. To be noted: 1000 g/ha unless otherwise stated, five-point scale.
Experiment [9] concerns Setaria faberi (SETFA). Described as above. As to conditions: 1000 g/ha unless otherwise stated, five-point scale.
Experiment [10] has as its system Amaranthus retoflexus (AMARE). Described as above. To be noted: 1000 g/ha unless otherwise stated, five-point scale.
The test system of experiment [11] is Lolium perenne (LOLPE). Described as above. To be noted: 1000 g/ha unless otherwise stated, five-point scale.
The subject of experiment [12] is Echinochloa crus-galli (ECHCG). Described as above. As to conditions: 1000 g/ha unless otherwise stated, five-point scale.

In the case of `CCn1c(C)c(-c2cncn2C)c(=O)c(C(=O)OC)c1-c1ccc(Cl)c(Cl)c1` [Compound 39, methyl 2-(3,4-dichlorophenyl)-1-ethyl-6-methyl-5-(3-methylimidazol-4-yl)-4-oxo-pyridine-3-carboxylate], the “Post-emergence Test AMARE, percentage damage to the plant (five-point scale)” value in experiment [1] is 1 (1=0-20%). The “Post-emergence Test IPOHE, percentage damage to the plant (five-point scale)” value in [2] is 1 (1=0-20%). In addition, the “Post-emergence Test LOLPE, percentage damage to the plant (five-point scale)” value with Lolium perenne (LOLPE) [3] is given as 1 (1=0-20%). The “Post-emergence Test SETFA, percentage damage to the plant (five-point scale)” value with Setaria faberi (SETFA) [4] is 1 (1=0-20%). The “Post-emergence Test ECHCG, percentage damage to the plant (five-point scale)” value in [5] is listed as 1 (1=0-20%). The “Post-emergence Test SOLNI, percentage damage to the plant (five-point scale)” value in the experiment on Solanum nigrum (SOLNI) [6] is 1 (1=0-20%). Also, the “percentage damage to the plant, IPOHE” value in experiment [7] is 1 (1=0-20%). Moreover, the “percentage damage to the plant, SOLNI” value in the experiment with Solanum nigrum (SOLNI) [8] is listed as 1 (1=0-20%). Also, the “percentage damage to the plant, SETFA” value in the experiment with Setaria faberi (SETFA) [9] is recorded as 1 (1=0-20%). The “percentage damage to the plant, AMARE” value in [10] is listed as 1 (1=0-20%). In addition, the “percentage damage to the plant, LOLPE” value in the experiment on Lolium perenne (LOLPE) [11] is on record as 1 (1=0-20%). In addition, the “percentage damage to the plant, ECHCG” value in experiment [12] is reported as 1 (1=0-20%).
On to `CCn1c(C)c(-c2cncn2C)c(=O)c(C(=O)O)c1-c1ccc(Cl)c(Cl)c1` [Compound 40, 2-(3,4-dichlorophenyl)-1-ethyl-6-methyl-5-(3-methylimidazol-4-yl)-4-oxo-pyridine-3-carboxylic acid], for which, in experiment [1], the “Post-emergence Test AMARE, percentage damage to the plant (five-point scale)” value is on record as 1 (1=0-20%). In experiment [2], the “Post-emergence Test IPOHE, percentage damage to the plant (five-point scale)” value is listed as 1 (1=0-20%). For the same compound, in the experiment on Lolium perenne (LOLPE) [3], the “Post-emergence Test LOLPE, percentage damage to the plant (five-point scale)” value was 1 (1=0-20%). Besides, in the experiment with Setaria faberi (SETFA) [4], the “Post-emergence Test SETFA, percentage damage to the plant (five-point scale)” value is listed as 1 (1=0-20%). Moreover, the “Post-emergence Test ECHCG, percentage damage to the plant (five-point scale)” value in [5] is reported as 1 (1=0-20%). Moreover, the “Post-emergence Test SOLNI, percentage damage to the plant (five-point scale)” value in the experiment on Solanum nigrum (SOLNI) [6] is reported as 2 (2=21-40%). Moreover, the “percentage damage to the plant, IPOHE” value in experiment [7] was 1 (1=0-20%). Besides, in the experiment with Solanum nigrum (SOLNI) [8], the “percentage damage to the plant, SOLNI” value is 1 (1=0-20%). The “percentage damage to the plant, SETFA” value in the experiment with Setaria faberi (SETFA) [9] is 1 (1=0-20%). In experiment [10], the “percentage damage to the plant, AMARE” value is listed as 1 (1=0-20%). Further, the “percentage damage to the plant, LOLPE” value with Lolium perenne (LOLPE) [11] is listed as 1 (1=0-20%). Also, in [12], the “percentage damage to the plant, ECHCG” value is listed as 1 (1=0-20%).
As for `CCn1c(C)c(-c2ccc(OC)nc2)c(=O)c(C(=O)O)c1-c1ccc(Cl)c(Cl)c1` [Compound 126, 2-(3,4-dichlorophenyl)-1-ethyl-5-(6-methoxy-3-pyridyl)-6-methyl-4-oxo-pyridine-3-carboxylic acid], the “Post-emergence Test AMARE, percentage damage to the plant (five-point scale)” value in [1] is listed as 5 (5=81-100%). Also, the “Post-emergence Test IPOHE, percentage damage to the plant (five-point scale)” value in experiment [2] is 4 (4=61-80%). The “Post-emergence Test LOLPE, percentage damage to the plant (five-point scale)” value with Lolium perenne (LOLPE) [3] was 2 (2=21-40%). Also, the “Post-emergence Test SETFA, percentage damage to the plant (five-point scale)” value in the experiment with Setaria faberi (SETFA) [4] is recorded as 5 (5=81-100%). In experiment [5], the “Post-emergence Test ECHCG, percentage damage to the plant (five-point scale)” value is 4 (4=61-80%). In addition, the “Post-emergence Test SOLNI, percentage damage to the plant (five-point scale)” value in the experiment with Solanum nigrum (SOLNI) [6] is recorded as 5 (5=81-100%). Also, in experiment [7], the “percentage damage to the plant, IPOHE” value is recorded as 3 (3=41-60%). Further, the “percentage damage to the plant, SOLNI” value with Solanum nigrum (SOLNI) [8] is 4 (4=61-80%). In the experiment on Setaria faberi (SETFA) [9], the “percentage damage to the plant, SETFA” value is 4 (4=61-80%). The “percentage damage to the plant, AMARE” value in experiment [10] is reported as 5 (5=81-100%). Moreover, the “percentage damage to the plant, LOLPE” value in the experiment with Lolium perenne (LOLPE) [11] amounted to 0. For the same compound, the “percentage damage to the plant, ECHCG” value in experiment [12] is listed as 2 (2=21-40%).

(Values after patent US12660819B2, “Herbicidal derivatives” (SYNGENTA CROP PROTECTION AG, priority 2020, dated 2026).)
